# Source: patent publication US12358902B2, “5-(2,5-bis(4-chloro-2-isopropylphenyl)thiophen-3-yl)-1H-tetrazole for the topical treatment of bacterial infections” (DENOVAMED INC., priority 2017, dated 2025)
# Legend:
# Clostridium spp. = assay: activity against Clostridium spp.; assay type: cell-based
# MRSA (ATCC #33591) = assay: rabbit ischemic wound model; assay type: in vivo, New Zealand white rabbits; settings: topical daily to day 14; p<0.001 vs control, p<0.03 vs mupirocin
# Protocol: 5-(2,5-bis(4-chloro-2-isopropylphenyl)thiophen-3-yl)-1H-tetrazole was tested for its efficacy against infection in the rabbit ischemic wound model, the gold standard animal model mimicking human DUI. In this model, the ear is made ischemic by division of central and rostral nutrient arteries of New Zealand white rabbits. New Zealand White rabbits were employed for this study and their husbandry and experimental manipulation adhered to standard Guides for the Care and Use of Laboratory Animals (2001). An incision was made to the level of bare cartilage at the base of the ear and followed by injection intradermally with epinephrine to obtain vasoconstriction and aid with skin detachment. Skin is separated from the underlying perichondrium and removed with a 6.0 mm aortic biopsy punch. Food and water were given ad libidum and animals were acclimatized for 7 days with photoperiods of alternating 12 h light and dark provided, along with analgesic (BUPRENEX™ (buprenorphine) 0.02 mg/kg sc) and anaesthesia (isoflurane (0.5-5% with oxygen carrier 0.5-2 L/min) during procedures.
# An ischemia wound healing model was conducted surgically. Each wound was inoculated with 50 μl of 2×10^7 CFU/ml MRSA (ATCC #33591) and dressed. After one day, wounds were treated with either 50 μl control cream containing vehicle (N=4), 50 μl containing mupirocin (N=4), or 50 μl cream containing 5-(2,5-bis(4-chloro-2-isopropylphenyl)thiophen-3-yl)-1H-tetrazole (N=8) daily. Clinical observations were performed on days 1, 3, 5, 7, 10 and 14. Wounds were assessed and observations recorded using the Draize scoring system. Digital photographs of each wound were obtained and documented.
# On day 14 post-wounding, under anesthesia, the animals were euthanized with an intravenous injection of BEUTHANASIA-D™ ([…] and phenytoin sodium) at a dosage of 150 mg/kg of body weight. Specimens including the entire wound, along with approximately 2-3 mm of the normal unwounded skin margins were harvested. Each ear wound specimen was sectioned into halves. For one half of the wound, the wound was placed into a container with 10% neutral buffered formalin and processed for routine histological evaluation. Wound organization was scored for four parameters on a scale of 0-4 at the wound site for inflammation, granulation, angiogenesis, and epithelialization. Wounds were characterized in a blinded manner by a board certified member of the College of American Pathologists. The other half of the wound was weighed (mg) in a sterile Petri dish, then placed in a sterile disposable tissue grinder and homogenized for quantitative microbiology. The tube containing the ground tissue sample was filled with 5 ml 0.85% sterile saline. Five 1:10 serial dilutions were then prepared with 0.5 ml aliquots and 4.5 ml of sterile saline per aliquot. Subsequently, 0.1 ml of the homogenate and each dilution was drop plated on trypticase soy agar and placed in an incubator at 37° C. The number of viable organisms per wound was recorded as cfu/gram of tissue.
# S. aureus MRSA ATCC43300 = assay: broth microdilution MIC (CLSI); assay type: cell-based; settings: Staphylococcus aureus, read-out: Antibacterial activity (MIC)
# Protocol: (§1) Using a broth microdilution assay according to Clinical Laboratory Standards Institute (CSLI) guidelines, we tested 5-(2,5-bis(4-chloro-2-isopropylphenyl)thiophen-3-yl)-1H-tetrazole (“Test Article” in below table) to establish MICs against a broad range of MDR bacteria and noted substantive activity versus methicillin-resistant Staphylococcus aureus (MRSA), vancomycin-resistant Enterococcus (VRE) and Streptococcus spp. Antimicrobial susceptibility testing was performed by a microdilution broth assay according to CLSI guidelines. The inoculum was prepared from stationary-phase cultures diluted in water. Microtiter plate wells received aliquots of 100 μL of the compound diluted in Mueller-Hinton II cation adjusted media. The final concentration of compound typically ranged from 250 to 0.125 μg/ml in serial two-fold dilutions. In addition to the test compound, growth and sterility controls were included, along with DMSO vehicle control rows. The microtiter plates were inoculated with 5×10^5 bacteria and incubated overnight at 35° C. in a humidified atmosphere.
# [1] = test system: S. aureus MRSA MISA MU3 NRS2; assay: broth microdilution MIC (CLSI); assay type: cell-based; settings: Staphylococcus aureus, read-out: Antibacterial activity (MIC)
# Protocol: as §1
# [2] = test system: S. aureus MRSA MISA MU50 NRS1; assay: broth microdilution MIC (CLSI); assay type: cell-based; settings: Staphylococcus aureus, read-out: Antibacterial activity (MIC)
# Protocol: as §1
# [3] = test system: S. aureus MRSA USA100 epidemic strain; assay: broth microdilution MIC (CLSI); assay type: cell-based; settings: Staphylococcus aureus, read-out: Antibacterial activity (MIC)
# Protocol: as §1
# [4] = test system: S. aureus MRSA USA200 epidemic strain; assay: broth microdilution MIC (CLSI); assay type: cell-based; settings: Staphylococcus aureus, read-out: Antibacterial activity (MIC)
# Protocol: as §1
# [5] = test system: S. aureus MRSA USA300 epidemic strain; assay: broth microdilution MIC (CLSI); assay type: cell-based; settings: Staphylococcus aureus, read-out: Antibacterial activity (MIC)
# Protocol: as §1
# [6] = test system: S. aureus MRSA clinical isolate ciprofloxacin resistant; assay: broth microdilution MIC (CLSI); assay type: cell-based; settings: Staphylococcus aureus, MRSA, read-out: Antibacterial activity (MIC)
# Protocol: as §1
# [7] = test system: S. aureus MRSA clinical isolate from Manchester; assay: broth microdilution MIC (CLSI); assay type: cell-based; settings: Staphylococcus aureus, MRSA, read-out: Antibacterial activity (MIC)
# Protocol: as §1
# [8] = test system: S. aureus MRSA clinical isolate multi resistant; assay: broth microdilution MIC (CLSI); assay type: cell-based; settings: Staphylococcus aureus, MRSA, read-out: Antibacterial activity (MIC)
# Protocol: as §1
# [9] = test system: S. aureus MRSA clinical isolate penicillin and erythromycin resistant; assay: broth microdilution MIC (CLSI); assay type: cell-based; settings: Staphylococcus aureus, MRSA, read-out: Antibacterial activity (MIC)
# Protocol: as §1
compound,measurement,setting,value
"CC(C)c1cc(Cl)ccc1-c1cc(-c2nnn[nH]2)sc1-c1ccc(Cl)cc1C(C)C [5-(4,5-bis(4-chloro-2-isopropylphenyl)thiophen-2-yl)-1H-tetrazole, reference compound]",activity,Clostridium spp.,inactive
"C/C(=C\C(=O)OCCCCCCCCC(=O)O)C[C@@H]1OC[C@H](C[C@@H]2O[C@H]2[C@@H](C)[C@H](C)O)[C@@H](O)[C@H]1O [mupirocin, reference compound]",percent wound contraction over time (FIG. 1),MRSA (ATCC #33591),control group had less wound contraction than either treated group
"CN[C@H](CC(C)C)C(=O)N[C@H]1C(=O)N[C@@H](CC(N)=O)C(=O)N[C@H]2C(=O)N[C@H]3C(=O)N[C@H](C(=O)N[C@H](C(=O)O)c4cc(O)cc(O)c4-c4cc3ccc4O)[C@H](O)c3ccc(c(Cl)c3)Oc3cc2cc(c3O[C@@H]2O[C@H](CO)[C@@H](O)[C@H](O)[C@H]2O[C@H]2C[C@](C)(N)[C@H](O)[C@H](C)O2)Oc2ccc(cc2Cl)[C@H]1O [vancomycin, reference compound]",MIC,S. aureus MRSA ATCC43300,0.5 µg/mL
same,MIC,[1],1 µg/mL
same,MIC,[2],4 µg/mL
same,MIC,[3],1 µg/mL
same,MIC,[4],0.5 µg/mL
same,MIC,[5],1 µg/mL
same,MIC,[6],0.5 µg/mL
same,MIC,[7],0.5 µg/mL
same,MIC,[8],0.5 µg/mL
same,MIC,[9],1 µg/mL
